Measurements reported in patent publication US10081631B2, “2-(1H-indazol-3-yl)-1H-imidazo[4,5-C]pyridine and therapeutic uses thereof” (Samumed, LLC, priority 2014, dated 2018).

What was measured:
ARPE-19 cells = test: Transdifferentiation of ARPE-19 cells into eye neuronal cells (PAX6 staining); format: cell-based; settings: Homo sapiens, 40 hours, PAX6 antibody staining
Experimental: The above synthesized compounds were screened using ARPE-19 cells [a spontaneously arising retinal pigment epithelia (RPE) cell line] to determine their ability to transdifferentiate ARPE-19 into eye neuronal cells [photoreceptors].
ARPE-19 cells are cultured in standard culture medium containing Dulbecco's Modified Eagle's Medium and Ham's F12 Nutrient Mixture (DMEM/F12) mix (1:1)+GlutaMax with 1% penicillin-Streptomycin and 10% FBS (Fetal Bovine Serum). Cells are incubated at 37° C. with 5% CO2. Cells are trypsinized and plated onto 384-well pre-spotted plate at a density of 3000 cells/well in 50 uL of media. Plating media:DMEM/F12 (1:1)+3% charcoal filtered-FBS+GlutaMax+1% pen/Strep. Cells are incubated at 37° C. with 5% CO2. At 40 hours, cells were fixed for 15 min with 10% Buffered Formalin. Cells were then washed 3 times with PBS for 5 min each, permeablize using 0.3% Triton X-100 in 1×PBS for 30 min, block for 1 h with 2% BSA in 1×PBS with 0.1% Triton X-100. The primary antibody (1:100 PAX6 Santa Cruz Biotech; sc-81649) was diluted and 10 μL/well was added to the cells. The cells were incubated overnight at 4° C. The plates were washed 3× with PBS before applying the secondary antibody (goat Anti-mouse 488), shake for 1 h in complete darkness, aspirate secondary, add 10 μL of DAPI (diamidino-2-phenylindole) (1 μg/mL), shake for 10 min. Wash 3× in PBS and scan on Thermo Fisher Scientific cell-Insight CX5. Readings were normalized to DMSO only treated cells, and normalized activities were utilized for EC50 calculations using the dose-response log (activator) vs. response-variable slope (four parameters) nonlinear regression feature available in GraphPad Prism 5.0 or 6.0.

[1] = test system: Wnt activity (Sp5-Luc reporter, SW480 colon carcinoma cells); test: Screening assay for Wnt activity: Sp5-Luc reporter gene assay in SW480 cells; format: cell-based; settings: Homo sapiens, 42 h incubation, luminescence
In short: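 IC50 values come from variable-slope four-parameter fits of luciferase signal normalized to DMSO wells. Stable Sp5-Luc reporter SW480 colon carcinoma cells were exposed to compounds in a 3-fold dilution series (source plates from 10 mM stock) for forty-two hours at 37 °C.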

Structure (SMILES): CN1CCN(c2nccc3[nH]c(-c4n[nH]c5ccc(-c6cnn(C)c6)cc45)nc23)CC1 [Compound 1916, 2-(5-(1-Methyl-1H-pyrazol-4-yl)-1H-indazol-3-yl)-4-(4-methylpiperazin-1-yl)-1H-imidazo[4,5-c]pyridine]
- EC50 (ARPE-19 cells): 3.7 nM
- IC50 [1]: 65 nM

Structure (SMILES): Fc1cncc(-c2ccc3[nH]nc(-c4nc5c(N6CCOCC6)nccc5[nH]4)c3c2)c1 [Compound 2275, 4-(2-(5-(5-Fluoropyridin-3-yl)-1H-indazol-3-yl)-1H-imidazo[4,5-c]pyridin-4-yl)morpholine]
- EC50 (ARPE-19 cells): 43.4 nM
- IC50 [1]: 80 nM

Structure (SMILES): Cn1cc(-c2ccc3[nH]nc(-c4nc5c(N6CCOCC6)nccc5[nH]4)c3c2)cn1 [Compound 2280, 4-(2-(5-(1-Methyl-1H-pyrazol-4-yl)-1H-indazol-3-yl)-1H-imidazo[4,5-c]pyridin-4-yl)morpholine]
- EC50 (ARPE-19 cells): 2 nM
- IC50 [1]: 15 nM

Structure (SMILES): CN1CCN(c2nccc3[nH]c(-c4n[nH]c5ccc(-c6cnn(C7CC7)c6)cc45)nc23)CC1 [Compound 2284, 2-(5-(1-Cyclopropyl-1H-pyrazol-4-yl)-1H-indazol-3-yl)-4-(4-methylpiperazin-1-yl)-1H-imidazo[4,5-c]pyridine]
- EC50 (ARPE-19 cells): 6 nM
- IC50 [1]: 90 nM
